Data published in US20100081679A1, “DIAMINOPYRIMIDINES AS FUNGICIDES” (Bayer CropScience AG, priority 2007, published 2010).
Marks after values point to notes of the source that are not given here.

Assay: logP determination via retention times, calibrated with unbranched alkan-2-ones
Format: physicochemical
Conditions: HPLC on reversed-phase C 18, EEC Directive 79/831 Annex V.A8; method *: 40° C., 0.1% aqueous formic acid and acetonitrile, linear gradient 10% to 95% acetonitrile

logP	SMILES
3.07*	FC(F)Sc1ccc(Nc2ncc(Br)c(NCC3CC3)n2)cc1 [compound 470]
2.09*	CCOC(=O)Cc1ccc(Nc2ncc(Cl)c(NCC3CC3)n2)cc1 [compound 539]
1.48*	CSc1cccc(Nc2ncc(C)c(NC3CC3)n2)c1 [compound 497]
2.64*	CCCOc1cccc(Nc2ncc(Cl)c(NC3CC3)n2)c1 [compound 531]
1.27*	O=C1NC(=O)C(c2ccc(Nc3ncc(Cl)c(NCC4CC4)n3)cc2)N1 (centres unmarked) [compound 512]
2.02*	CC(C)(CCl)C(=O)Nc1ccc(Nc2ncc(Cl)c(NCC3CC3)n2)cc1 [compound 556]
1.58*	CN(C)C(=O)c1cccc(Nc2ncc(Cl)c(NCC3CC3)n2)c1 [compound 519]
1.46*	O=CNc1cccc(Nc2ncc(Cl)c(NCC3CC3)n2)c1 [compound 546]

Same assay, conditions: HPLC on reversed-phase C 18, method **: 43° C.; 0.1% aqueous phosphoric acid and acetonitrile; linear gradient 10% to 95% acetonitrile

logP	SMILES
1.64**	CC(=O)Nc1ccc(Nc2ncc(C(F)(F)F)c(NC3CC3)n2)cc1 [compound 956]
2.7**	CN(c1nc(Nc2ccccc2)ncc1Cl)C1CC1 [compound 734]
3.59**	CSc1cccc(Nc2ncc(Cl)c(N(C)C3CC3)n2)c1 [compound 738]
2.22**	CN(c1nc(Nc2cccc(N3CCCC3=O)c2)ncc1Cl)C1CC1 [compound 769]

Same assay, conditions: HPLC on reversed-phase C18, method **: 43° C.; mobile phase 0.1% aqueous phosphoric acid and acetonitrile; linear gradient 10% to 95% acetonitrile

logP	SMILES
1.57**	O=S(=O)(Cc1ccc(Nc2ncc(Cl)c(NC3CC3)n2)cc1)N1CCOCC1 [compound 314]

Same assay, conditions: HPLC on reversed-phase C18, method *: 40° C., 0.1% aqueous formic acid and acetonitrile, linear gradient 10% to 95% acetonitrile

logP	SMILES
1.23*	O=CNc1cccc(Nc2ncc(Br)c(NC3CC3)n2)c1 [compound 716]
2.06*	CCC(=O)c1cc(Nc2ncc(Br)c(NC3CC3)n2)ccc1O [compound 760]
2.11*	CCC(C)c1ccccc1Nc1ncc(Cl)c(NC2CC2)n1 (centres unmarked) [compound 907]
2.3*	CCCCc1ccccc1Nc1ncc(Cl)c(NC2CC2)n1 [compound 911]
1.37*	OCc1cccc(Nc2ncc(Br)c(NC3CC3)n2)c1 [compound 766]
3.07*	FC(F)(F)Oc1ccccc1Nc1ncc(Cl)c(NC2CC2)n1 [compound 883]
3.49*	CCCSc1cccc(Nc2ncc(Br)c(NC3CC3)n2)c1 [compound 706]
2.16*	O=S(=O)(c1cccc(Nc2ncc(Cl)c(NCC3CC3)n2)c1)N1CCCCC1 [compound 675]
1.93*	Cc1cccc(Nc2ncc(Cl)c(NC3CC3)n2)c1 [compound 731]
2.92*	CCSc1cccc(Nc2ncc(Br)c(NC3CC3)n2)c1 [compound 708]

Second part, the compound before the results:

SMILES	logP
CN(C)S(=O)(=O)Oc1ccc(Nc2ncc(Cl)c(NC3CC3)n2)cc1 [Example 102]	2.08*
CC(=O)Nc1cc(Nc2ncc(Br)c(NC3CC3)n2)ccc1C [compound 113]	1.35*
CC(Nc1nc(Nc2ccccc2)ncc1Cl)C1CC1 (centres unmarked) [compound 166]	2.14*

Same assay, conditions: HPLC on reversed-phase C18, method *: 40° C.; mobile phase 0.1% aqueous formic acid and acetonitrile; linear gradient 10% to 95% acetonitrile

logP	SMILES
1.61*	COC(=O)Nc1cccc(Nc2ncc(Br)c(NC3CC3)n2)c1 [compound 309]
2.59*	O=C1CCCN1c1cc(Nc2ncc(Cl)c(NC3CC3)n2)c(Cl)cc1Cl [compound 298]
1.47*	COc1ccc(Nc2ncc(Cl)c(NC3CC3)n2)cc1 [compound 284]

Same assay, conditions: HPLC on reversed-phase C18 column (EEC Directive 79/831 Annex V.A8); method *: 40° C.; 0.1% aqueous formic acid and acetonitrile; linear gradient 10% to 95% acetonitrile

logP	SMILES
1.09*	Cc1cc(O)ccc1Nc1ncc(Cl)c(NC2CC2)n1 [compound 177]
1.41*	O=C1CCCc2ccc(Nc3ncc(Cl)c(NC4CC4)n3)cc2N1 [compound 181]
2.48*	CN(C)S(=O)(=O)c1cccc(Nc2ncc(Br)c(NCC3CC3)n2)c1 [compound 192]
1.63*	COc1ccc(Nc2ncc(Br)c(NCC3CC3)n2)cn1 [compound 191]
1.46*	CS(=O)(=O)Cc1cccc(Nc2ncc(Cl)c(NC3CC3)n2)c1 [compound 243]
1.9*	CC(=O)Nc1cccc(Nc2ncc(C(F)(F)F)c(NCC3CC3)n2)c1 [compound 204]

Same assay, conditions: HPLC reversed-phase C 18, EEC Directive 79/831 Annex V.A8; method **: 43° C., 0.1% aqueous phosphoric acid and acetonitrile, linear gradient 10% to 95% acetonitrile

logP	SMILES
1.68**	CON(C(C)=O)c1cccc(Nc2ncc(Br)c(NC3CC3)n2)c1 [compound 849]

Same assay, conditions: HPLC reversed-phase C 18, EEC Directive 79/831 Annex V.A8; method *: 40° C., 0.1% aqueous formic acid and acetonitrile, linear gradient 10% to 95% acetonitrile

logP	SMILES
2.18*	O=C1CCCCN1c1cccc(Nc2ncc(C(F)(F)F)c(NC3CC3)n2)c1 [compound 803]
1.85*	Cc1ccc(Nc2ncc(Br)c(NC3CC3)n2)cc1CC#N [compound 820]
2.52*	CSC(C)c1cccc(Nc2ncc(Cl)c(NC3CC3)n2)c1 (centres unmarked) [compound 807]
3.78*	CC(C)(C)CSCc1ccc(Nc2ncc(Cl)c(NC3CC3)n2)cc1 [compound 823]

Same assay, conditions: method **: HPLC reversed-phase C 18, 43° C., 0.1% aqueous phosphoric acid and acetonitrile, linear gradient 10% to 95% acetonitrile

logP	SMILES
1.71**	CNS(=O)(=O)c1ccc(Nc2ncc(Cl)c(NC3CC3)n2)cc1 [compound 21]
2.25**	COC(=O)c1ccc(Nc2ncc(Cl)c(NC3CC3)n2)cc1.Cl [compound 36]
1.85**	Clc1cnc(Nc2ccccc2)nc1NCC1CC1 [Example 10]
1.8**	Brc1cnc(Nc2ccccc2)nc1NC1CC1 [Example 30]
1.87**	CNS(=O)(=O)c1ccc(Nc2ncc(Cl)c(NCC3CC3)n2)cc1 [compound 20]
2.62**	FC(F)(F)c1cnc(Nc2ccccc2)nc1NC1CC1 [Example 93]
1.78**	COc1cc(Nc2ncc(Cl)c(NCC3CC3)n2)cc(OC)c1OC [Example 12]
1.45**	O=C1CCCN1c1ccc(Nc2ncc(Cl)c(NC3CC3)n2)cc1 [Example 34]

Same assay, conditions: method **: HPLC reversed-phase C 18, temperature 43° C.; mobile phase 0.1% aqueous phosphoric acid and acetonitrile; linear gradient 10% to 95% acetonitrile

logP	SMILES
2.8**	CC(=O)c1ccc(Nc2ncc(C(F)(F)F)c(NC3CC3)n2)cc1 [compound 656]
2.23**	Clc1cnc(Nc2cccc(N3CCCC3)c2)nc1NC1CC1 [compound 619]
2.72**	CC(=O)c1cccc(Nc2ncc(C(F)(F)F)c(NC3CC3)n2)c1 [compound 657]

Same assay, conditions: method **: HPLC, reversed-phase C 18, 43° C., mobile phase 0.1% aqueous phosphoric acid and acetonitrile, linear gradient from 10% to 95% acetonitrile

logP	SMILES
2.77**	Clc1cnc(Nc2ccccc2)nc1NC1CC1c1ccccc1 (centres unmarked) [compound 1014]

Same assay, conditions: method *: HPLC reversed-phase C18, 40° C., 0.1% aqueous formic acid and acetonitrile, linear gradient 10% to 95% acetonitrile

logP	SMILES
2.4*	CC(C)(C)OC(=O)N1CCN(c2ccc(Nc3ncc(Cl)c(NC4CC4)n3)cc2)CC1 [compound 7]
1.66*;	CN(C)C(=O)c1ccc(Nc2ncc(Br)c(NCC3CC3)n2)cc1 [compound 452]
1.99*	CCOC(=O)Nc1cccc(Nc2ncc(Br)c(NCC3CC3)n2)c1 [compound 428]
4.24*	CC(C)CCSc1cccc(Nc2ncc(Cl)c(NC3CC3)n2)c1.Cc1ccc(S(=O)(=O)O)cc1 [compound 441]
2.77*	FC(F)Sc1ccc(Nc2ncc(Cl)c(NC3CC3)n2)cc1 [compound 94]
2.73*	CCSc1cccc(Nc2ncc(Cl)c(NC3CC3)n2)c1.Cc1ccc(S(=O)(=O)O)cc1 [compound 440]
1.99*	CC(C)(C)C(=O)Nc1ccc(Nc2ncc(Br)c(NCC3CC3)n2)cc1 [compound 450]
1.85*	CC(C)C(=O)Nc1cccc(Nc2ncc(Br)c(NCC3CC3)n2)c1 [compound 460]
1.53*	CNC(=O)c1cccc(Nc2ncc(Br)c(NCC3CC3)n2)c1 [compound 427]
1.98*	CC(C)(C)C(=O)Nc1cccc(Nc2ncc(Cl)c(NC3CC3)n2)c1 [Example 91]
1.5*	Cc1cnc(Nc2ccccc2)nc1NC1CC1 [Example 51]
1.02*	CC(=O)Nc1ccc(Nc2ncc(Cl)c(NC3CC3)n2)cc1.Cc1ccc(S(=O)(=O)O)cc1 [compound 434]
3.33*	CCCSc1cccc(Nc2ncc(Cl)c(NC3CC3)n2)c1 [compound 437]

Same assay, conditions: method *: HPLC reversed-phase C 18, temperature 40° C.; mobile phase 0.1% aqueous formic acid and acetonitrile; linear gradient 10% to 95% acetonitrile

logP	SMILES
2.7*;	CC(=O)c1ccc(Nc2ncc(C(F)(F)F)c(NC3CC3)n2)cc1 [compound 656]
1.94*	CCC(=O)Nc1cccc(Nc2ncc(C#N)c(NC3CC3)n2)c1 [compound 607]
1.58*	O=C1NC(=O)C(c2ccc(Nc3ncc(C(F)(F)F)c(NC4CC4)n3)cc2)N1 (centres unmarked) [compound 658]
1.32*	CC(=O)Nc1ccc(Nc2ncc(F)c(NC3CC3)n2)cc1Cl [compound 580]
2.57*;	CC(=O)c1cccc(Nc2ncc(C(F)(F)F)c(NC3CC3)n2)c1 [compound 657]
1.38*	CCN(C(C)=O)c1ccc(Nc2ncc(F)c(NC3CC3)n2)cc1 [compound 581]
1.8*	O=C(NCC(F)(F)F)c1cccc(Nc2ncc(Cl)c(NC3CC3)n2)c1 [compound 630]

Continued, compound first:

SMILES	logP
COc1cc(Nc2ncc(Br)c(NC3CC3)n2)ccc1F [compound 568]	2.05*
Fc1cnc(Nc2cccc(OC(F)(F)F)c2)nc1NC1CC1 [compound 576]	2.33*

Same assay, conditions: method *: HPLC, reversed-phase C 18, 40° C., mobile phase 0.1% aqueous formic acid and acetonitrile, linear gradient from 10% to 95% acetonitrile

logP	SMILES
1.55*	COCc1cc(Nc2ncc(Cl)c(NC3CC3)n2)ccc1OC [compound 1050]
3.41*	CCC(CC)c1ccc(Nc2ncc(Cl)c(NC3CC3)n2)cc1 [compound 1033]
0.84*	Clc1cnc(Nc2cccc(OCCN3CCOCC3)c2)nc1NC1CC1 [compound 1040]
2.84*	CCOC(=O)c1cc(Nc2ncc(Cl)c(NC3CC3)n2)ccc1Cl [compound 990]

Same assay, conditions: pH 2.3; read-out: logP (pH2.3)

chromatographic logP	SMILES
3.52	Clc1cnc(Nc2ccccc2)nc1Cl [4,5-Dichloro-N-phenylpyrimidine-2-amine]
1.38	COc1cnc(Cl)nc1NC1CC1 [2-chloro-N-cyclopropyl-5-methoxypyrimidine-4-amine]
